These results are taken from patent publication US20200003759A1, “METHODS FOR IDENTIFYING METAP-2 MODULATORS” (Zafgen, Inc., priority 2017, published 2020).

SMILES strings stand for the structures. Where two headings read alike, the source gives them in different places.

One data set relates to p21. Kind of data set: p21 protein level in HUVEC lysate. It is filed as cell-based, human. As for the experimental part: (§1) Cell lysates were stored at −80° C.
(§2) All values obtained were normalized against protein concentration.

For data set [1], the system named is HUVEC. Kind of data set: Inhibition of HUVEC proliferation as a function of drug exposure time (washout assay).
Experimental: (§3) After incubation with drug or vehicle, EC proliferation was analyzed using a DNA dye (CyQUANT®) added to lysed cells to provide a fluorescent signal relative to the amount of DNA, allowing a measure of cell density.
A washout assay protocol is as follows: Day 1: plate cells: Plate cells at 0.3×10^4 cells/well in collagen coated 96-well plates; Incubate cells at 37° C., 5% CO2 in a humidified atmosphere overnight. Day 2: dilute and add MetAP2 inhibitor compounds: Dilute compounds in cell culture medium to the appropriate concentration. Add medium containing compound onto cells. Incubate cells at 37° C., 5% CO2 in a humidified atmosphere for the appropriate timepoint. Washout: After the indicated time, remove medium from the relevant samples and wash twice with PBS. Replace with fresh medium Incubate at 37° C., 5% CO2 in a humidified atmosphere until final incubation time. […] Measure cell proliferation using CyQuant assay.
The cells were incubated for 72 hrs and cell proliferation was measured to assess inhibition. […] Error bars represent the standard error of the mean for each condition (n=8 replicates per test condition pooled from 3 experiments).
Another data set relates to p53. Kind of data set: p53 protein level in HUVEC lysate. It is filed as cell-based, human. The conditions noted are these: discrete time intervals and concentrations (FIG. 4). On the procedure:
as §1, §2

Data set [2] relates to von Willebrand factor (vWF). Kind of data set: vWF level in HUVEC lysate. It is filed as cell-based, human. The conditions noted are these: discrete time intervals and concentrations (FIG. 3). On the procedure:
as §1, §2

The format of data set [3] is in vivo. As for the experimental part: Male beagle dogs 10 to 20 months of age (Marshall BioResources, North Rose, NY) were individually housed at the testing facility. […] […]. […] Body weight and food intake were recorded daily. Blood was collected before each dose and 4 hours after each dose for hematology (e.g., platelet count), coagulation parameters (e.g., thrombin time, antithrombin III), and protein panel analysis (e.g., D-dimer) (Nextcea, Woburn, Mass.).

For data set [4] the following is noted: cited from earlier work.
Data set [5] has as its system plasminogen activator inhibitor-1 (PAI-1). Briefly: PAI-1 protein level in HUVEC lysate. It is filed as cell-based, human. As for the experimental part:
as §1, §2

The test system of another data set is thrombomodulin (TM). On the procedure:
For LC-MS/MS sample preparation, cell culture media was removed, cells were washed with 10 mL of Dulbecco's phosphate-buffered saline (DPBS), and 500 μL of T-PER lysis buffer was added. Cell lysates were stored at −80° C. […] For the 4- and 8-hour incubations, cells were maintained by standard culture for the remainder of the 72-hour incubation period. Cell cycle protein levels were assessed using enzyme-linked immunosorbent assays.
HUVEC cells were exposed to compounds at concentrations of 1 nM, 3 nM, 10 nM, and 20 nM. […] The protein assays performed included measurements of total p21, thrombomodulin, total p53, PAI-1, and von Willibrand factor (vWF). All values obtained were normalized against protein concentration.

The test system of data set [6] is HUVEC. Briefly: Inhibition of HUVEC (EC) proliferation, continuous exposure, CyQUANT DNA dye. The following applies: Homo sapiens.
Experimental: In vitro studies were conducted in cultured HUVECs (Lonza, Amboise, France). Cells were cultured in endothelial growth medium 2 cell culture media (EGM-2, Lonza, Amboise, France), passaged by seeding at 3×10^3 cells/mL on T175 flasks, and allowed to reach approximately 80% confluence before experiments were conducted. Cells were trypsinized and counted using trypan blue exclusion method using an automated Cedex cell counter.
as §3
Setting [7] is: 72 hours of incubation, all concentrations (1, 3, 10, 20 nM).
The mark [8] stands for this setting: 10 nM, 2-hour incubation, washed (FIG. 6B).
The mark [9] stands for this setting: exposures as short as one hour (FIG. 1C).
Where [10] appears, read: dogs, 0.6 mg/kg s.c. Q3D (FIG. 5).
Where [11] appears, read: patients with type 2 diabetes, 26 weeks of treatment.
[12] abbreviates: shorter incubations of 4 or 8 hours.
The mark [13] stands for this setting: dogs, 2 mg/kg s.c. Q3D for 10 days.

For the molecule `CO[C@@H]1[C@H](OC(=O)/C=C/c2ccc(OCCN(C)C)cc2)CC[C@]2(CO2)[C@H]1[C@@]1(C)O[C@@H]1CC=C(C)C` [Beloranib, beloranib], in the data set with p21 (setting [7]), the p21 protein level result is reported as “increased p21”. Further, in the data set on p21 (short 4- or 8-hour incubations, 10 and 20 nM), the p21 protein level entry is “increased p21”. In addition, in the data set on HUVEC [1] (setting [8]), the “reduction of cell proliferation measured at 72 hours” value was “approximately 60%”. Besides, in the data set with HUVEC [1] (setting [9]), the “effects on EC proliferation after short exposure” value is on record as “occurred rapidly” and the “lowest concentration with effects on EC proliferation at short exposure” value is reported as 11 × the EC50. Besides, in the data set with p53, the p53 protein levels entry was “no effects on p53 protein levels”. Further, the vWF levels result in [2] was “no effects on vWF levels”. The tolerability entry in [3] (dogs, 0.6 mg/kg s.c. Q3D) is reported as “not well tolerated”. Moreover, in data set [3] (setting [10]), the D-dimer concentrations result is “increased”, the “antithrombin III” value is recorded as “decreased”, the platelet count entry is recorded as “decreased” and the thrombin time entry was “decreased”. The “hemostasis in toxicology studies” value in data set [3] (dogs, 0.6 mg/kg s.c. Q3D, within 2 weeks of drug administration) is “some animals developed evidence of impaired hemostasis”. Besides, in data set [4] (patients with obesity, PWS, or type 2 diabetes), the adverse events result is given as “adverse events (AEs) of venous thromboembolism occurred”. In data set [4] (setting [11]), the “reduction in HbA1c” value was 2.0% and the weight loss is listed as 13%. For the same molecule, the PAI-1 protein level result in data set [5] (10 and 20 nM at the earliest timepoint) was “increased PAI-1 levels”. Also, the PAI-1 protein level entry in data set [5] (all concentrations at 72 hours) is reported as “increased PAI-1 levels”.
`CO[C@@H]1[C@H](OC(=O)N2CC(CCN3CCOCC3)C2)CC[C@]2(CO2)[C@H]1[C@@]1(C)O[C@@H]1CC=C(C)C` [Compound A]: the values for the p21 protein level entry in the data set on p21 (setting [7]) and in the data set on p21 (setting [12]) were “increased p21” and “no meaningful changes”, respectively. Also, in the data set on HUVEC [1] (setting [8]), the “effect on cell proliferation measured at 72 hours” value is reported as “no effect on cell proliferation”. Further, the “effect on cell proliferation after short-term exposure” value in the data set on HUVEC [1] (4 hours or less, concentrations up to 50× the EC50) is on record as “no effect on cell proliferation”. Moreover, the “continuous exposure time needed for robust inhibition of EC proliferation” value in the data set with HUVEC [1] (FIG. 1B) is at least 48 h. Besides, the “% inhibition 6XIC90 4 h exposure” value in the data set on HUVEC [1] (HUVEC proliferation, 6XIC90, 4 h exposure) was 5.6%. For the same molecule, in the data set with HUVEC [1] (HUVEC proliferation, 6XIC90, 24 h exposure), the “% inhibition 6XIC90 24 h exposure” value is on record as 41%. The “% inhibition 20XIC90 4 h exposure” value in the data set on HUVEC [1] (HUVEC proliferation, 20XIC90, 4 h exposure) was determined as 12.4%. The “% inhibition 20XIC90 24 h exposure” value with HUVEC [1] (HUVEC proliferation, 20XIC90, 24 h exposure) was determined as 40%. Moreover, the TM protein level entry is “reduced TM protein levels” in the data set on thrombomodulin (TM) (setting [7]) and “no meaningful changes” with thrombomodulin (TM) (setting [12]). In addition, the p53 protein levels entry in the data set on p53 is on record as “no effects on p53 protein levels”. In addition, the EC50 in the data set on HUVEC [6] (72 h, read-out: concentration that inhibited EC proliferation by 50% (EC50)) came out at 0.24 nM; in the data set with HUVEC [6] (read-out: HUVEC Proliferation (EC50, nM)), 0.2 nM. Besides, the vWF levels result in [2] is “no effects on vWF levels”. In data set [3] (dog, in vivo, sc, 2 mg/kg), the tolerability entry is “well tolerated”. Further, in data set [3] (setting [13]), the body weight entry is “Weight loss was observed”. In addition, in [3] (setting [13]), the food intake result is given as “unchanged”. The “changes in clinical observations, hematology (platelet count), D-dimer, thrombin time, antithrombin III” value in [3] (dogs, 2 mg/kg s.c. Q3D for 10 days (FIG. 5)) is “no adverse changes”. Moreover, the survival result in [3] (dogs, 2 mg/kg s.c. Q3D, scheduled dosing period) is “all animals survived”. Moreover, the PAI-1 protein level result in [5] (any of the concentrations or time points) is “no effect on PAI-1 protein levels”.
